Assay results from patent publication US20100136024A1, “Selective Inhibition of Histone Deacetylase 6 for Ocular Neuroprotection or for Treatment or Control of Glaucoma” (priority 2008, published 2010).
Where two headings read alike, the source gives them in different places.

Assays:
HDAC6 [1] = biological target: T1, HDAC6 (Homo sapiens, UniProt Q9UBN7); test: HDAC6 inhibition and selectivity, '853 Patent; assay type: biochemical; conditions: worked out from the IC50 of '853 Patent FIG. 3
T1 sequence (Q9UBN7 1-1215): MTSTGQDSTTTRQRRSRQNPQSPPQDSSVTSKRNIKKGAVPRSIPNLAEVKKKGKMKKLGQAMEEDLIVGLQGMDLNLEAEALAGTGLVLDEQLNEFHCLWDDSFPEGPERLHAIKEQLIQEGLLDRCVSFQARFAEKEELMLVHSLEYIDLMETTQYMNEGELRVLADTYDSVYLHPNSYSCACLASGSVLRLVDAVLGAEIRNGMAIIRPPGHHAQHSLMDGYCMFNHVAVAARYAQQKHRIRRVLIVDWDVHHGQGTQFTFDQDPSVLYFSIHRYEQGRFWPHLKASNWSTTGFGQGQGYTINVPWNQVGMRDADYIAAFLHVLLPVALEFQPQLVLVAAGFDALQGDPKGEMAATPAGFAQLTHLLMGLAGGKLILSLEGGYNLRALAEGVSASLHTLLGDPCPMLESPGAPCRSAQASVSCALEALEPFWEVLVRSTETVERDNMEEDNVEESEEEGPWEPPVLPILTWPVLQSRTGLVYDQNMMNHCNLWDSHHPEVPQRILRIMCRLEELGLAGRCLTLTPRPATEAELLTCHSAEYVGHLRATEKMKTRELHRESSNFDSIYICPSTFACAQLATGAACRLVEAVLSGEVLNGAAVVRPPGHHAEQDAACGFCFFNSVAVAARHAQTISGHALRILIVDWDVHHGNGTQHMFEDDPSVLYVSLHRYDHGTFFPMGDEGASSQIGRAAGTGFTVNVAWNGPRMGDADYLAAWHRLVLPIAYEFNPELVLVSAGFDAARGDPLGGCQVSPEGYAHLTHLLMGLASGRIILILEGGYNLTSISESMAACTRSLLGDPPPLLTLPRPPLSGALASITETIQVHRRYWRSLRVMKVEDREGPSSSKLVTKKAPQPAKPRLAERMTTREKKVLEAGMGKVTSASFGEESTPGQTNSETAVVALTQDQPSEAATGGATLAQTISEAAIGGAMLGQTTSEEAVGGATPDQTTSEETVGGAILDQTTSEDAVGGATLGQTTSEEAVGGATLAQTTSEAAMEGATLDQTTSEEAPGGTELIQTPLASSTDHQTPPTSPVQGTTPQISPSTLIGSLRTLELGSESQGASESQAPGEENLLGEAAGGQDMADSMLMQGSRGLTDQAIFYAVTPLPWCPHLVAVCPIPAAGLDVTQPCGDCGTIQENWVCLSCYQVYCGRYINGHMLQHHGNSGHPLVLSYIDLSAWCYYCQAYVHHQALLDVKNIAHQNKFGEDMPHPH
Excerpt: Id., col. 114, lines 64-65. […] Id., col. 115, lines 37-38. […] Id., col. 137.
The '853 Patent provides, in its FIG. 3, the following data regarding the HDAC6 selective activity of compound 10, in comparison with other preferred but non-selective inhibitors of HDAC1 and HDAC6, i.e., compounds 8 and 9: […]

HDAC1 = HDAC1 (Homo sapiens, UniProt Q13547); conditions: '853 Patent FIG. 3; read-out: Inhibiting Concentration IC50 for HDAC1; cited from earlier work
HDAC6 [2] = biological target: T1, HDAC6; conditions: '853 Patent FIG. 3; read-out: Inhibiting Concentration IC50 for HDAC6; cited from earlier work
HDAC6 [3] = biological target: T1, HDAC6; conditions: Itoh et al. enzyme assay; cited from earlier work
[4] = test system: histone acetylation, gene-expression patterns, cell-cycle progression; conditions: Haggarty et al.; cited from earlier work
A549 cells = conditions: cited from earlier work
[5] = test system: HDAC6-mediated α-tubulin deacetylation; conditions: Haggarty et al.; cited from earlier work

Sequence of HDAC1 (Q13547 whole entry, species assumed): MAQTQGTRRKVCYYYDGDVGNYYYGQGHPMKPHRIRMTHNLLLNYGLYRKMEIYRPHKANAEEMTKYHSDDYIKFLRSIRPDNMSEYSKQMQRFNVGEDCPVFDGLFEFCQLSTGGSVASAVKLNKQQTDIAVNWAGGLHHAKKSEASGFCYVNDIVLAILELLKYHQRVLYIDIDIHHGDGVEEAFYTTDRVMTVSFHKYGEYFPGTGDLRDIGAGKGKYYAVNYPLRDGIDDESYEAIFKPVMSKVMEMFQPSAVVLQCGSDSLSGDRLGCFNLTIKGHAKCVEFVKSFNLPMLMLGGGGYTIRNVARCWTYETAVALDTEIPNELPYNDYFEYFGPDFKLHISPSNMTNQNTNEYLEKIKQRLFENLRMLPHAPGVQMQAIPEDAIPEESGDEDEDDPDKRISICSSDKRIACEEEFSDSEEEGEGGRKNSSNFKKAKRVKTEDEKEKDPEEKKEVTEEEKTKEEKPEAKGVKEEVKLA

**Q.** Which results are given for `O=C(CCCC(=O)NCc1ccccc1)NO` [Compound 10]?
**A.** times more selective for HDAC6 than HDAC1 (HDAC6 [1]): about four; IC50 (HDAC1): 1.5 ± 0.5 µM; IC50 (HDAC6 [2]): 0.38 ± 0.04 µM

**Q.** With `CC(C)(C)OC(=O)N[C@@H](CCCCCS)C(=O)Nc1cccc(-c2ccccc2)c1` [Compound 13a] as the compound, how does the IC50 (HDAC6 [3]) read?
**A.** 0.054 µM

**Q.** And the “selectivity HDAC1/HDAC6 (HDAC1 IC50/HDAC6 IC50)” value (from here on “selectivity HDAC1/HDAC6”) (HDAC6 [3])?
**A.** 1.6

**Q.** And the “selectivity HDAC4/HDAC6 (HDAC4 IC50/HDAC6 IC50)” value (shortened to “selectivity HDAC4/HDAC6”) (HDAC6 [3])?
**A.** 1.0

**Q.** What does the source list for `CC(C)(C)OC(=O)N[C@@H](CCCCCS)C(=O)Nc1cnc2ccccc2c1` [Compound 15a]?
**A.** IC50 (HDAC6 [3]): 0.032 µM; selectivity HDAC1/HDAC6 (HDAC1 IC50/HDAC6 IC50) (HDAC6 [3]): 1.6; selectivity HDAC4/HDAC6 (HDAC4 IC50/HDAC6 IC50) (HDAC6 [3]): 1.0

**Q.** Which “selectivity HDAC1/HDAC6” value (HDAC6 [3]) does the source give for `CC(C)(C)OC(=O)N[C@@H](CCCCCS)C(=O)NC1CCCC1` [Compound 16a, (S)-tert-butyl 1-(cyclopentylamino)-7-mercapto-1-oxoheptan-2-ylcarbamate] here?
**A.** 42

**Q.** What about the “selectivity HDAC4/HDAC6” value (HDAC6 [3]) of the same compound?
**A.** 36

**Q.** What does the source list for `CC(C)(C)OC(=O)N[C@@H](CCCCCS)C(=O)NC1CCCCC1` [Compound 17a, (S)-tert-butyl 1-(cyclohexylamino)-7-mercapto-1-oxoheptan-2-ylcarbamate]?
**A.** selectivity HDAC1/HDAC6 (HDAC1 IC50/HDAC6 IC50) (HDAC6 [3]): 35; selectivity HDAC4/HDAC6 (HDAC4 IC50/HDAC6 IC50) (HDAC6 [3]): 32

**Q.** Which results are given for `CC(C)(C)OC(=O)N[C@@H](CCCCCS)C(=O)NC1CCCCCC1` [Compound 18a, (S)-tert-butyl 1-(cycloheptylamino)-7-mercapto-1-oxoheptan-2-ylcarbamate]?
**A.** selectivity HDAC1/HDAC6 (HDAC1 IC50/HDAC6 IC50) (HDAC6 [3]): 39; selectivity HDAC4/HDAC6 (HDAC4 IC50/HDAC6 IC50) (HDAC6 [3]): 37

**Q.** For `CC(C)(C)NC(=O)[C@H](CCCCCS)NC(=O)OC(C)(C)C` [Compound 19a, (S)-tert-butyl 1-(tert-butylamino)-7-mercapto-1-oxoheptan-2-ylcarbamate], which IC50 (HDAC6 [3]) is on record?
**A.** 0.071 µM

**Q.** What about the “selectivity HDAC1/HDAC6” value (HDAC6 [3]) of the same compound?
**A.** 42

**Q.** What about the “selectivity HDAC4/HDAC6” value (HDAC6 [3]) of the same compound?
**A.** 26

**Q.** With `CC(C)(C)OC(=O)N[C@@H](CCCCCS)C(=O)NC12CC3CC(CC(C3)C1)C2` [Compound 20a, (S)-tert-butyl 1-(adamant-1-ylamino)-7-mercapto-1-oxoheptan-2-ylcarbamate] as the compound, how does the IC50 (HDAC6 [3]) read?
**A.** 0.082 µM

**Q.** And the “selectivity HDAC1/HDAC6” value (HDAC6 [3])?
**A.** 46

**Q.** And the “selectivity HDAC4/HDAC6” value (HDAC6 [3])?
**A.** 51

**Q.** Which “effect on level of histone acetylation, gene-expression patterns, or cell-cycle progression” value [4] does the source give for `O=C(CCCCCCC(=O)Nc1ccc([C@H]2O[C@@H](CSc3nc(-c4ccccc4)c(-c4ccccc4)o3)C[C@@H](c3ccc(CO)cc3)O2)cc1)NO` [tubacin] here?
**A.** does not affect

**Q.** And the “effect on histone (lysine) acetylation” value (A549 cells)?
**A.** no effect

**Q.** And the “concentration at which α-tubulin activity (acetylation) is increased” value (A549 cells; concentrations as low as)?
**A.** ≤ 125 nM

**Q.** And the “inhibition of α-tubulin deacetylation” value [5]?
**A.** selective and reversible inhibitor
